Measured values reported in patent US20260265220A1, “GALPHA12 INHIBITORS AND METHODS USING SAME” (RUTGERS, THE STATE UNIVERSITY OF NEW JERSEY, priority 2022, published 2026).
“And” between values parts separate entries of the source, which are not always exact repeats. Equal entries are not always repeated. Where two headings read alike, the source gives them in different places.

Experiments:
Fms(h) = target: T1, Fms(h) (Homo sapiens, UniProt P07333); assay: Eurofins in vitro kinase activity assay; type: biochemical; details: read-out: Fms(h) kinase activity (human kinase inhibition data)
T1 construct: purchased Eurofins
T1 sequence (P07333 20-972): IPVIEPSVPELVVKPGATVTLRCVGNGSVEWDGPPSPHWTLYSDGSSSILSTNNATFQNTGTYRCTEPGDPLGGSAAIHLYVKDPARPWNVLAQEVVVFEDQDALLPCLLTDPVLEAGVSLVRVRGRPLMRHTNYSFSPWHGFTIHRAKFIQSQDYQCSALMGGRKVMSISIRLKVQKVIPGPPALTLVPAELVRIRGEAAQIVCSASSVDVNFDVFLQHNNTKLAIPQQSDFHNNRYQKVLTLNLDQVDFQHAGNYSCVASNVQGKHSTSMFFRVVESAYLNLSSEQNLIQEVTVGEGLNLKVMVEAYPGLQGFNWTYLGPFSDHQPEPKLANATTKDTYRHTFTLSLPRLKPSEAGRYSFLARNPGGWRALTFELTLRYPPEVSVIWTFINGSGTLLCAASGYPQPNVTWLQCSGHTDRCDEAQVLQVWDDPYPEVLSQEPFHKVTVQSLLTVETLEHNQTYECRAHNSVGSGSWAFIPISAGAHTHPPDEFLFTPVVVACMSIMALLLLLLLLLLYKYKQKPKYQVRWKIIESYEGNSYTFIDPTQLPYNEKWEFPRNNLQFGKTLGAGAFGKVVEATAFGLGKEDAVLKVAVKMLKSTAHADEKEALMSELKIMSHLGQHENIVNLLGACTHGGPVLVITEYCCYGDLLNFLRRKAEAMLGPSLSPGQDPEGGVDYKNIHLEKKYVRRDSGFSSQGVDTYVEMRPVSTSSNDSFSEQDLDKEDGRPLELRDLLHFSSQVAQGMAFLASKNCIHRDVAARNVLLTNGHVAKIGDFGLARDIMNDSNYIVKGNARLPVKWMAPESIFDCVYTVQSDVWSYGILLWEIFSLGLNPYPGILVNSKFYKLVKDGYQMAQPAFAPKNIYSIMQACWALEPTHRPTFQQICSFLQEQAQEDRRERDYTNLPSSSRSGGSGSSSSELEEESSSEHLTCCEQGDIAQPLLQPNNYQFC
Procedure: (§1) Using the Eurofins™ platform, a kinase activity assay was performed to identify human kinases inhibited by compound 1. To determine the effects of the compound on kinase activity, varying concentrations of compound 1 (1, 10 and 100 μM) were used with one technical replicate in a standard in vitro kinase activation assay.
(§2) This platform was used to determine the effects of compound 1 on the activity of 113 unique human kinases. Thresholds for kinase activity of interest was set at less than or equal to 60% […] (i.e., for antagonists) or enhanced activity at or above 140% (i.e., for agonists). Further, the validity of the results were confirmed by the occurrence of a dose-dependent response.

PI3Kδ = target: T2, PI3Kδ (Homo sapiens, UniProt O00329); assay: Eurofins in vitro kinase activity assay; type: biochemical
T2 construct: purchased Eurofins
T2 sequence (O00329 whole entry): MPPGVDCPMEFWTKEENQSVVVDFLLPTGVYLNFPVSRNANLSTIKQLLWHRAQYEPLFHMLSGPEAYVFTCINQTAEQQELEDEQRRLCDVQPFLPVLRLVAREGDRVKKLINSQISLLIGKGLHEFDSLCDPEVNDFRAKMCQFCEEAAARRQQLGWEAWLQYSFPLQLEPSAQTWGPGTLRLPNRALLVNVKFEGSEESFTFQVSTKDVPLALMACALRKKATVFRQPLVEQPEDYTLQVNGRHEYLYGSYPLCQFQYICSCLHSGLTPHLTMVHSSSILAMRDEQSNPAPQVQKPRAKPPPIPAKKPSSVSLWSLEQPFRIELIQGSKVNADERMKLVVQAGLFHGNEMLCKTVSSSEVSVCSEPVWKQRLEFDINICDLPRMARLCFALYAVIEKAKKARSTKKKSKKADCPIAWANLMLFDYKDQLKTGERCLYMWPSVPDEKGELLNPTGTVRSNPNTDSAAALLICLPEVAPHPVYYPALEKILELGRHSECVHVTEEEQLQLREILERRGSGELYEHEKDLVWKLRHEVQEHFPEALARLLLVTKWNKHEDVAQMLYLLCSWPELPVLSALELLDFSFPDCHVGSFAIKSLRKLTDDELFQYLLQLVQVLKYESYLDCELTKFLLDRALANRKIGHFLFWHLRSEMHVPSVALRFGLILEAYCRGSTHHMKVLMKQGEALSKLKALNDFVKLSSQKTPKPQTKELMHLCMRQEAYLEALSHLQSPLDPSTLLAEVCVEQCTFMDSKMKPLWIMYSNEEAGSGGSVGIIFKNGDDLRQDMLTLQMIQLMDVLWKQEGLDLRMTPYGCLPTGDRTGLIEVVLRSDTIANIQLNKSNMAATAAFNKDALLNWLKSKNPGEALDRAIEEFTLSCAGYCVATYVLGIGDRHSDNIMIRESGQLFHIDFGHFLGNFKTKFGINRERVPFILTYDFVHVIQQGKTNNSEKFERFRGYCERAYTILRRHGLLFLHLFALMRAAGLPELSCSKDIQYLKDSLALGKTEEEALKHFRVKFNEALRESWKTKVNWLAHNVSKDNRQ
T2 sequence (P27986 whole entry partner): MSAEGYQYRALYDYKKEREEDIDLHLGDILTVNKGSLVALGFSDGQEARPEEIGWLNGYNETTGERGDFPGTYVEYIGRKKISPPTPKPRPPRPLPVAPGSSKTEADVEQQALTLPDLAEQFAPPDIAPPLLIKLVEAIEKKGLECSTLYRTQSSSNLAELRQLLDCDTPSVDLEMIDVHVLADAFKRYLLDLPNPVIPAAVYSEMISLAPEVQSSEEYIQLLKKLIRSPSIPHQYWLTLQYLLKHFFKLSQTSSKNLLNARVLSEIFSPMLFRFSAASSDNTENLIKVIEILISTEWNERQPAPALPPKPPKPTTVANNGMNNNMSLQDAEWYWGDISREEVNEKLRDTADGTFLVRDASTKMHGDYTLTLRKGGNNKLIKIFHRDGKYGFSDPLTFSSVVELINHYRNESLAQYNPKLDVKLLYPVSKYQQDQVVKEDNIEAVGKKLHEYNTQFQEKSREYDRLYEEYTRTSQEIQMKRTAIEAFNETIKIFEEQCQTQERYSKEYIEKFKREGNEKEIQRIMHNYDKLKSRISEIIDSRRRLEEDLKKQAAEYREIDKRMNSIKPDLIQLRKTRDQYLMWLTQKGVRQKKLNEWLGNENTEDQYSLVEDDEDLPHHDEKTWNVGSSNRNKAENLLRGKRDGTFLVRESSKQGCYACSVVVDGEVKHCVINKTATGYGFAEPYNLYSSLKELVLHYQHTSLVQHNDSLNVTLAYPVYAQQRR
Procedure: as §1, §2

PRAK(h)/MAPKAPK5 = target: T3, PRAK(h)/MAPKAPK5 (Homo sapiens, UniProt Q8IW41); assay: Eurofins in vitro kinase activity assay; type: biochemical
T3 construct: purchased Eurofins
T3 sequence (Q8IW41 1-473): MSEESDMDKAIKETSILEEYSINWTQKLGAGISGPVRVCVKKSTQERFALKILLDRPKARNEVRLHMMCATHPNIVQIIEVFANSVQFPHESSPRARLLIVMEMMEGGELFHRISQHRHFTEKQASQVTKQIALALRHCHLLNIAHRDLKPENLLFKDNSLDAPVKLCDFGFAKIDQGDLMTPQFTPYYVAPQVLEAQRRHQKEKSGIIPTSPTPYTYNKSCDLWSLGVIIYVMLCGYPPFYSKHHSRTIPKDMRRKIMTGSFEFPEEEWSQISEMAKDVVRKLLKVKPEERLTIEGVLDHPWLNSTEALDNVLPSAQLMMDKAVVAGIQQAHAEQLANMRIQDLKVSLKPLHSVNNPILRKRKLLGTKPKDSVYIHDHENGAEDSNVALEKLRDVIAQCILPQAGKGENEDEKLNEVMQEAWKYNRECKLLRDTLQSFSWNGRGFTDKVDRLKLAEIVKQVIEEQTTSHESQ
Procedure: as §1, §2

mTOR(h) = target: T4, mTOR(h) (Homo sapiens, UniProt P42345); assay: Eurofins in vitro kinase activity assay; type: biochemical; details: read-out: mTOR(h) kinase activity (human kinase inhibition data)
T4 construct: purchased Eurofins
Procedure: as §1, §2

113 unique human kinases = assay: Eurofins kinase activity panel; type: biochemical; details: 1, 10 and 100 μM
Procedure: as §1, §2

Gα12 = target: T5, Gα12 (Homo sapiens, UniProt Q03113); assay: Gα12 luciferase reporter assay in hTERT-SRE immortalized airway smooth muscle cells, carbachol stimulated; type: cell-based; details: carbachol (CCh) stimulated, dose response
T5 sequence (Q03113 1-381): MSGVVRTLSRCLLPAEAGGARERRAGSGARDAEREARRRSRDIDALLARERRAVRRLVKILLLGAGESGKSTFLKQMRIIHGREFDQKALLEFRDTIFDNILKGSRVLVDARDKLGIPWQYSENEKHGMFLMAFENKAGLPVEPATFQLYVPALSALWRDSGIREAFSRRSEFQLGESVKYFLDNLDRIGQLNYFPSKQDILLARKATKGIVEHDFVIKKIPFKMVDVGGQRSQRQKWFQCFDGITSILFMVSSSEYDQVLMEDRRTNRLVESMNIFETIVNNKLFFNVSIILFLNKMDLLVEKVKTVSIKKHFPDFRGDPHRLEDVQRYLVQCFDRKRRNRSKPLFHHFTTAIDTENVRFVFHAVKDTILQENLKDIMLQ
Excerpt: FIGS. 1A-1C show an experimental approach to the identification of Gα12 modulators using hTERT-SRE human telomerase reverse transcriptase immortalized airway smooth muscle cells. FIG. 1A: provides a schematic representation of Gα12-activated luciferase reporter. […] FIG. 1C: provides a detailed schematic showing the downstream effects of Gα12/13 activation and/or inhibition, wherein serum response element (SRE) may be detected by a luciferase assay, and pAKT and pMLC may be detected by Western blotting. A Gα12 luciferase reporter assay was used to evaluate the potential of analogues of compound 1 as bronchodilators (FIGS. 2A-2C), wherein the assay utilized hTERT-SRE telomerase reverse transcriptase immortalized airway smooth muscle cells. In certain embodiments, the Gα12 pathway is activated with carbachol (CCh), resulting in downstream transcription of a […]/luciferase fusion protein (FIG. 1A), and consequently, a fluorescence signal (FIG. 1B). In certain embodiments, detection of a decrease in observed fluorescent signal indicates inhibition of Gα12. Further, activation of the Gα12 pathway results in elevated levels of phosphorylated AKT (pAKT) and MLC (pMLC) (FIG. 1C). In certain embodiments, detection of a decrease in pAKT and/or pMLC indicates inhibition of Gα12.

[1] = test system: AKT phosphorylation (pAKT); assay: Immunoblot analysis of AKT phosphorylation (pAKT) in airway smooth muscle cells; type: cell-based, human; details: compound at 100 μM (FIGS. 4A-4B)
Procedure: (§3) Compounds 1-3 were evaluated for inhibition of AKT and MLC phosphorylation. As described elsewhere herein, phosphorylation of AKT and/or MLC can occur with activation of the Gα12 pathway. Accordingly, in certain embodiments, detection of a decrease in pAKT and/or pMLC indicates inhibition of Gα12.
(§4) The immunoblot analysis of phosphorylation of myosin light chain (pMLC) was used as a surrogate for ASM contraction. In parallel, phosphorylation of AKT was analogously assessed. AKT is a downstream substrate for phosphoinositide 3-kinase (PI3K) activity, can modulate the activation of the Gα12 pathway in primary human airway smooth muscle cells. These cells are the pivotal cells regulating bronchomotor tone in asthma and chronic obstructive pulmonary disease (COPD) which is emphysema or chronic bronchitis.
(§5) The analogues described herein were further assessed for potency and efficacy in inhibiting AKT and pMLC phosphorylation induced by contractile agonists, carbachol, or histamine. These contractile agonists are pivotal in causing airway smooth muscle contraction and airway obstruction in asthma and COPD.

[2] = test system: MLC phosphorylation (pMLC); assay: Immunoblot analysis of myosin light chain phosphorylation (pMLC) in airway smooth muscle cells; type: cell-based, human; details: compound at 100 μM (FIGS. 4C-4D)
Procedure: as §3, §4, §5

O=C(CCn1ncc2ccccc21)N1CCOC(c2ccc(Cc3ccc(F)cc3)cn2)C1 (stereo not drawn) [compound 1, 1-(2-(5-(4-fluorobenzyl)pyridin-2-yl)morpholino)-3-(1H-indazol-1-yl)propan-1-one]
activity at 1 µM (Fms(h); compound at 1 μM): 95%
activity at 10 µM (Fms(h); compound at 10 μM): 94%
activity at 100 µM (Fms(h); compound at 100 μM): 64%
Aggregate Mean (of raw counts) (PI3Kδ; compound at 1 μM): 16175
activity at 1 µM (PI3Kδ; compound at 1 μM, read-out: Kinase Activity (%), mean of replicates): 91%
Raw Counts (PI3Kδ; compound at 1 μM, single replicates): 15209.80926 and 17139.70182
Kinase Activity (%) (PI3Kδ; compound at 1 μM, single replicates, 1 µM): 86%
activity at 1 µM (PI3Kδ; compound at 1 μM, single replicates, read-out: Kinase Activity (%)): 95%
Aggregate Mean (of raw counts) (PI3Kδ; compound at 10 μM): 15960
activity at 10 µM (PI3Kδ; compound at 10 μM, read-out: Kinase Activity (%), mean of replicates): 92%
Raw Counts (PI3Kδ; compound at 10 μM, single replicates): 15948.27586 and 15971.06288
activity at 10 µM (PI3Kδ; compound at 10 μM, single replicates, read-out: Kinase Activity (%)): 92%
Aggregate Mean (of raw counts) (PI3Kδ; compound at 100 μM): 17900
activity at 100 µM (PI3Kδ; compound at 100 μM, read-out: Kinase Activity (%), mean of replicates): 83%
Raw Counts (PI3Kδ; compound at 100 μM, single replicates): 17495.26814 and 18305.46265
Kinase Activity (%) (PI3Kδ; compound at 100 μM, single replicates, 100 µM): 81%
activity at 100 µM (PI3Kδ; compound at 100 μM, single replicates, read-out: Kinase Activity (%)): 85%
PRAK/MAPKAPK5 inhibition, dose dependence (PRAK(h)/MAPKAPK5; 1, 10 and 100 μM): inhibited in a dose-dependent manner
activity at 1 µM (PRAK(h)/MAPKAPK5; compound at 1 μM, read-out: PRAK(h)/MAPKAPK5 kinase activity (human kinase inhibition data)): 115%
activity at 10 µM (PRAK(h)/MAPKAPK5; compound at 10 μM, read-out: PRAK(h)/MAPKAPK5 kinase activity (human kinase inhibition data)): 92%
activity at 100 µM (PRAK(h)/MAPKAPK5; compound at 100 μM, read-out: PRAK(h)/MAPKAPK5 kinase activity (human kinase inhibition data)): 40%
activity at 1 µM (mTOR(h); compound at 1 μM): 103%
activity at 10 µM (mTOR(h); compound at 10 μM): 104%
activity at 100 µM (mTOR(h); compound at 100 μM): 70%
specificity: effect on the overwhelming majority of the 113 human kinases (113 unique human kinases): little to no effect
number of kinases exhibiting dose dependent inhibition (113 unique human kinases; of 113 human kinases): 7
number of kinases with agonism observed (113 unique human kinases; of 113 human kinases, none relevant in human airway smooth muscle): 4
modulation of Gα12 luciferase reporter signal (agonist/antagonist) (Gα12): inhibition
pAKT [1]: decreased
pMLC [2]: decreased
